Assay results as given in patent publication US20240076347A1, “METHODS FOR PREVENTING FUNGAL INFECTIONS” (Cidara Therapeutics, Inc., priority 2016, published 2024).

How the values were obtained:
Candida auris = assay: Murine model of disseminated candidiasis (immunosuppressed CD-1 mice), treatment; assay type: in vivo; settings: 20 mg/kg PO, 2 doses; Day 14
Protocol: Female 6-8 week old CD-1 mice were immunosuppressed with cyclophosphamide (200 mg/kg) 3 days prior to infection and 150 mg/kg 1 day post-infection. On the day of infection, mice were inoculated with 3×10^7 C. auris blastospores via the lateral tail vein. Mice were randomized into 5 groups (n=5 for colony forming units (CFU) and n=10 for survival): CD101 20 mg/kg administered by intraperitoneal (IP) injection, fluconazole 20 mg/kg administered per os (PO), amphotericin B 0.3 mg/kg IP, and a vehicle control. Treatments were administered 2 hours post-infection (Day 1) and again on Day 4 of the study for a total of 2 doses. Mice were monitored daily and a survival curve was generated. CFU groups were sacrificed on Day 8 of the study. One kidney was removed from each mouse, homogenized, plated on potato dextrose agar (PDA), and incubated at 35° C. for 2 days to determine CFU. The remaining survival mice were monitored until the end of the study (Day 14).

[1] = system: C. albicans SC-5314 biofilms; assay: Adhesion phase biofilms (prevention) on silicone elastomer discs; assay type: cell-based, Candida albicans; settings: 1 and 4 μg/ml
Protocol: (§1) Biofilms were formed on silicone elastomer (SE) discs using a catheter-associated-biofilm model (Chandra et al., Nature Protocols 3:1909, 2008; Chandra et al., J. […] Chandra et al., J. Dental Research 80: 903, 2001). For evaluation of activity against adhesion phase biofilms (prevention), Candida cells were adhered to catheter discs for 90 min. […] Discs incubated with fluconazole or media alone were used as controls in all experiments. […] Chandra et al., J. […] Chandra et al., J. Dental Research 80: 903, 2001). Following incubation with drugs, discs were transferred to fresh plates containing phosphate buffered saline with XTT and menadione, incubated for 3 h at 37° C. and optical density was read at 492 nm. Separate batches of biofilms were stained with fluorescent dyes (FUN1™, CONA) and observed under Confocal Scanning Laser Microscope (CSLM) to evaluate biofilm architecture and thickness (Chandra et al., Nature Protocols 3:1909, 2008; Chandra et al., J. […] Statistical analyses for all data were performed using GraphPad Prism 6 software. Drug treated groups were compared to control untreated groups using unpaired t-tests.

[2] = system: C. albicans SC-5314 biofilms; assay: Mature phase biofilms (treatment) on silicone elastomer discs; assay type: cell-based, Candida albicans; settings: 1 and 4 μg/ml
Protocol: as §1

C. albicans strain 529L = assay: Rat model of vulvovaginal candidiasis, vaginal lavage and tissue burden; assay type: in vivo, Candida albicans
Protocol: Animal Strain. Wistar rats were supplied by Harlan Laboratories UK and were specific pathogen free. Rats weighed […] at the time of surgery. Ovariectomies were performed. Rats were allowed 4-7 days recovery before transportation to the facility where the experiment was to be performed. Following arrival, rats were allowed at least 4 days acclimatization before start of the experiment. Rats weighed 100-120 g at the time of ovariectomy and were about 300 g at start of the experiment.
Pre-conditioning. Female Wistar rats underwent ovariectomy at least 10 days prior to the study commencing. They were further pre-conditioned by treatment with 5 mg/kg 17-β-estradiol administered subcutaneously (SC) every other day on Days −7, −5, −3 and −1 prior to infection with C. albicans strain 529. Estradiol treatment continued every other day throughout the study to 7 days post-infection.
Yeast Isolate. Candida albicans strain 529L was used in this chronic rat vaginal infection model.
Infection. Yeast strains were inoculated aerobically onto Sabouraud dextrose agar media (SAB) containing 0.05 mg/mL chloramphenicol and incubated at 30° C. for 48-72 h. 18-24 h prior to infection, Yeast Peptone Dextrose (YPD) broths were inoculated with 2-3 isolated colonies from agar plates and incubated overnight (37° C. on an orbital shaker). Broths containing C. albicans strain 529L were washed 3 times with sterile phosphate buffered saline (PBS) before dilution to the correct inoculum for infection. Cell counts were determined using a haemocytometer and confirmed by quantitative culture on Sabouraud dextrose agar.
Rats were infected with 0.1 mL by intravaginal administration under inhaled isoflurane anaesthesia using about 9.8×10^5 CFU/mL (9.8×10^4 CFU/Rat) C. albicans strain 529L
Treatment. […] The fluconazole treatment also started at 24 h post infection but was administered by the PO route at the dose volume and frequency shown in Table 7. The study design is further outlined in FIG. 19.
(§2) Reduction in weight and general loss of condition due to estradiol treatment are also typical in this rat model. Colonization with C. albicans was determined by quantitative culture of daily vaginal lavage samples. Rats were euthanized 9 days post infection and C. albicans determined by quantitative culture of vaginal tissue (including uterine horns).
Lavage samples were obtained on Days 1 (pre-treatment), 2, 3, 5, 7, and 9 days post infection by flushing rat vaginas 4 times with 0.1 mL pre-warmed sterile PBS. Following euthanasia, vaginal tissue including uterine horns was removed prior to weighing. Tissues were homogenized in 2 mL sterile PBS using a bead-beater. Vaginal wash and tissue homogenates were diluted appropriately then quantitatively cultured on to Sabouraud dextrose agar containing 0.05 mg/mL chloramphenicol and incubated at 37° C. for up to 72 h before being counted.
Statistical analysis. Data were analyzed using StatsDirect software (version 2.7.8) using the non-parametric Kruskal-Wallis test and if this was statistically significant all pairwise comparisons were analyzed (Conover-Inman).

[3] = assay type: in vivo, Wistar rats; settings: rat, in vivo
Protocol: Endpoints. The rats were monitored at a frequency appropriate for their clinical condition. Rat weights were recorded at least once daily to ensure animals remained within ethical limits.
as §2

[4] = lavage Day 1 post treatment (Day 2 post infection), 20 mg/kg PO dosed once
[5] = lavage Day 1 post treatment (Day 2 post infection), 20 mg/kg PO dosed twice
[6] = lavage Day 2 post treatment (Day 3 post infection), 20 mg/kg PO dosed once
[7] = lavage Day 2 post treatment (Day 3 post infection), 20 mg/kg PO dosed twice
[8] = lavage Day 4 post treatment (Day 5 post infection), 20 mg/kg PO dosed once
[9] = lavage Day 4 post treatment (Day 5 post infection), 20 mg/kg PO dosed twice
[10] = lavage Day 6 post treatment (Day 7 post infection), 20 mg/kg PO dosed once
[11] = lavage Day 6 post treatment (Day 7 post infection), 20 mg/kg PO dosed twice
[12] = lavage Day 8 post treatment (Day 9 post infection), 20 mg/kg PO dosed once
[13] = lavage Day 8 post treatment (Day 9 post infection), 20 mg/kg PO dosed twice
[14] = terminal vaginal tissue Day +9 post infection, 20 mg/kg PO dosed once
[15] = terminal vaginal tissue Day +9 post infection, 20 mg/kg PO dosed twice
[16] = vaginal lavage Day 1 post infection, pre-treatment, 20 mg/kg PO dosed once group
[17] = vaginal lavage Day 1 post infection, pre-treatment, 20 mg/kg PO dosed twice group

OC(Cn1cncn1)(Cn1cncn1)c1ccc(F)cc1F [Fluconazole, fluconazole, reference compound]
percent survival at the end of the study (Candida auris): 0%
thickness of biofilms [1]: no effect on biofilm thickness
biofilm metabolic activity (XTT) ([1]; 24 h, P>0.05): did not inhibit biofilm formation
biofilm architecture (CSLM) [2]: did not affect Candida biofilms
thickness of biofilms [2]: had no effect
biofilm metabolic activity (XTT) ([2]; 24 h, P>0.05): neither concentrations of fluconazole (1 and 4 μg/ml) affected these biofilms
terminal vaginal tissue burden (C. albicans strain 529L; 20 mg/kg PO once or twice, all rats, Day 9): below the limit of detection
lavage burden (C. albicans strain 529L; Day 5 post infection, 20 mg/kg PO once or twice, all rats): below the limit of detection
Group Geometric mean (C. albicans strain 529L; [4]): 1.50 × 10^2 CFU/mL
Log Group Geometric mean (C. albicans strain 529L; [4]): 2.18 CFU/mL
Log reduction from vehicle control (C. albicans strain 529L; [4]): 1.52 CFU/mL
Group Geometric mean (C. albicans strain 529L; [5]): 1.27 × 10^2 CFU/mL
Log Group Geometric mean (C. albicans strain 529L; [5]): 2.10 CFU/mL
Log reduction from vehicle control (C. albicans strain 529L; [5]): 1.59 CFU/mL
burden vs vehicle, statistics (C. albicans strain 529L; lavage Day 2 post infection): neither the CD101 nor fluconazole burden was statistically different from the vehicle burden
reduction in burden (C. albicans strain 529L; lavage Day 2 post infection, fluconazole 20 mg/kg PO): about 1.6 Log10 CFU/mL
Group Geometric mean (C. albicans strain 529L; [6]): 1.00 CFU/mL
Log Group Geometric mean (C. albicans strain 529L; [6]): 0.00 CFU/mL
Log reduction from vehicle control (C. albicans strain 529L; [6]): 3.57 CFU/mL
Group Geometric mean (C. albicans strain 529L; [7]): 1.49 CFU/mL
Log Group Geometric mean (C. albicans strain 529L; [7]): 0.17 CFU/mL
Log reduction from vehicle control (C. albicans strain 529L; [7]): 3.40 CFU/mL
rats having burden below the limit of detection (C. albicans strain 529L; lavage Day 3 post infection, 20 mg/kg PO once or twice): 11/12
burden vs vehicle, statistics (C. albicans strain 529L; lavage Day 3 post infection, all treatments): statistically different from the vehicle treatments
Group Geometric mean (C. albicans strain 529L; [8]): 1.00 CFU/mL
Log Group Geometric mean (C. albicans strain 529L; [8]): 0.00 CFU/mL
Log reduction from vehicle control (C. albicans strain 529L; [8]): 4.22 CFU/mL
Group Geometric mean (C. albicans strain 529L; [9]): 1.00 CFU/mL
Log Group Geometric mean (C. albicans strain 529L; [9]): 0.00 CFU/mL
Log reduction from vehicle control (C. albicans strain 529L; [9]): 4.22 CFU/mL
Group Geometric mean (C. albicans strain 529L; [10]): 1.00 CFU/mL
Log Group Geometric mean (C. albicans strain 529L; [10]): 0.00 CFU/mL
Log reduction from vehicle control (C. albicans strain 529L; [10]): 4.18 CFU/mL
Group Geometric mean (C. albicans strain 529L; [11]): 1.00 CFU/mL
Log Group Geometric mean (C. albicans strain 529L; [11]): 0.00 CFU/mL
Log reduction from vehicle control (C. albicans strain 529L; [11]): 4.18 CFU/mL
Group Geometric mean (C. albicans strain 529L; [12]): 1.00 CFU/mL
Log Group Geometric mean (C. albicans strain 529L; [12]): 0.00 CFU/mL
Log reduction from vehicle control (C. albicans strain 529L; [12]): 4.30 CFU/mL
Group Geometric mean (C. albicans strain 529L; [13]): 1.00 CFU/mL
Log Group Geometric mean (C. albicans strain 529L; [13]): 0.00 CFU/mL
Log reduction from vehicle control (C. albicans strain 529L; [13]): 4.30 CFU/mL
Group Geometric mean (C. albicans strain 529L; [14]): 1.00 CFU/g
Log Group Geometric mean (C. albicans strain 529L; [14]): 0.00 CFU/g
Log reduction from vehicle control (C. albicans strain 529L; [14]): 5.49 CFU/g
Group Geometric mean (C. albicans strain 529L; [15]): 1.00 CFU/g
Log Group Geometric mean (C. albicans strain 529L; [15]): 0.00 CFU/g
Log reduction from vehicle control (C. albicans strain 529L; [15]): 5.49 CFU/g
Group Geometric mean (C. albicans strain 529L; [16]): 3.16 × 10^3 CFU/mL
Log Group Geometric mean (C. albicans strain 529L; [16]): 3.50 CFU/mL
Log reduction from vehicle control (C. albicans strain 529L; [16]): −1.06 CFU/mL
Group Geometric mean (C. albicans strain 529L; [17]): 1.04 × 10^3 CFU/mL
Log Group Geometric mean (C. albicans strain 529L; [17]): 3.02 CFU/mL
Log reduction from vehicle control (C. albicans strain 529L; [17]): −0.58 CFU/mL
tolerability [3]: well tolerated with no adverse events observed
